The text below walks through data of article PMC11956013, “Structure–Activity Relationships and Evaluation of 2-(Heteroaryl-cycloalkyl)-1H-indoles as Tauopathy Positron Emission Tomography Radiotracers” (Journal of Medicinal Chemistry, 2025).

Data set [1] concerns the target Non-Selective Rat Glycine Ion Channel (Rattus norvegicus, UniProt P07727). In words: Non-Selective Rat Glycine Ion Channel Strychnine Mass Spectrometry Binding Assay, Cerep.
Data set [2] concerns the target D1 (h) (Homo sapiens, UniProt P21728). The settings on record: Specific binding; reference compound.
In data set [3] the target is CYP1A2 (Homo sapiens, UniProt P05177). The settings on record: In Vitro Metabolism; HLM, Tacrine substrate; reference compound.
For data set [4], the target named is CYP2C19 (Homo sapiens, UniProt P33261). The settings on record: In Vitro Metabolism; HLM, Omeprazole substrate; reference compound.
Data set [5] concerns the target COMT (catechol- O-methyl transferase). In words: COMT (catechol- O-methyl transferase), Eurofins assay 457. Format: biochemical. The settings on record: Enzymatic activity; reference compound; read-out: Concurrent IC50.
Data set [6] has as its target Adenosine Guinea Pig Transporter (Cavia porcellus, UniProt H0V4R7). Briefly: Adenosine Guinea Pig Transporter Mass Spectrometry Binding (Antagonist Ligand) Assay, Cerep. The settings on record: reference compound.
Data set [7] addresses CYP2D6 (Homo sapiens, UniProt P10635). The settings on record: In Vitro Metabolism; HLM, Dextromethorphan substrate; reference compound.
Data set [8] has as its target MT1 (ML1A) (h) (Homo sapiens, UniProt P48039). In words: Eurofins panel: MT1 (ML1A) (h) (agonist radioligand). Format: binding. Also on record: purchased Eurofins (CNS SafetyScreen panel, contract assay) assay 1538. Particulars: reference compound.
In data set [9] the target is Ca2+ channel (L, dihydropyridine site) (Rattus norvegicus, UniProt P22002). Briefly: Eurofins panel: Ca2+ channel (L, dihydropyridine site) (antagonist radioligand). Particulars: reference compound.
Data set [10] concerns the target M2 (h) (Homo sapiens, UniProt P08172). Particulars: Specific binding; reference compound.
Data set [11] concerns the target GR (h) (Homo sapiens, UniProt P04150). Particulars: Specific binding; reference compound.
Data set [12] concerns the target D2L (h) (Homo sapiens, UniProt P14416). Particulars: Specific binding; reference compound.
Data set [13] deals with M3 (h) (Homo sapiens, UniProt P20309). The settings on record: Specific binding; reference compound.
Data set [14] addresses M4 (h) (Homo sapiens, UniProt P08173). Briefly: M4 (h) (antagonist radioligand), Eurofins assay 96. Particulars: Specific binding; reference compound.
In data set [15] the target is T1, M5 (h) (Homo sapiens, UniProt P08912).
T1 sequence (P08912 1-532): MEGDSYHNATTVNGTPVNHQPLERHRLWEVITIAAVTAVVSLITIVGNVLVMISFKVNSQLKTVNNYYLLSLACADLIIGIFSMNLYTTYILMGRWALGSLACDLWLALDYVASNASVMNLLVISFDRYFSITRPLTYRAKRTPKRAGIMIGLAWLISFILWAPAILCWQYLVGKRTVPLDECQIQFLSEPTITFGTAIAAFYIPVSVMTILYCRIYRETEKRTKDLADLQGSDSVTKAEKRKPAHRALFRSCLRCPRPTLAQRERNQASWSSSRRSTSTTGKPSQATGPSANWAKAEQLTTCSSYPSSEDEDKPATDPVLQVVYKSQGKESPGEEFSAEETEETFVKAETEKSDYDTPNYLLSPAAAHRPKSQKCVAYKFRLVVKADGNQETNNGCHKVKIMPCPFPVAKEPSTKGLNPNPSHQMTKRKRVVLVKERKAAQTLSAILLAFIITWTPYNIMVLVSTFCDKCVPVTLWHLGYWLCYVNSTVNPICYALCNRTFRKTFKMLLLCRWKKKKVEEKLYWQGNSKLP
In words: M5 (h) (antagonist radioligand), Eurofins assay 97. The settings on record: Specific binding, reference compound.

Ca2+ channel (L, dihydropyridine site), sequence (P22002 whole entry): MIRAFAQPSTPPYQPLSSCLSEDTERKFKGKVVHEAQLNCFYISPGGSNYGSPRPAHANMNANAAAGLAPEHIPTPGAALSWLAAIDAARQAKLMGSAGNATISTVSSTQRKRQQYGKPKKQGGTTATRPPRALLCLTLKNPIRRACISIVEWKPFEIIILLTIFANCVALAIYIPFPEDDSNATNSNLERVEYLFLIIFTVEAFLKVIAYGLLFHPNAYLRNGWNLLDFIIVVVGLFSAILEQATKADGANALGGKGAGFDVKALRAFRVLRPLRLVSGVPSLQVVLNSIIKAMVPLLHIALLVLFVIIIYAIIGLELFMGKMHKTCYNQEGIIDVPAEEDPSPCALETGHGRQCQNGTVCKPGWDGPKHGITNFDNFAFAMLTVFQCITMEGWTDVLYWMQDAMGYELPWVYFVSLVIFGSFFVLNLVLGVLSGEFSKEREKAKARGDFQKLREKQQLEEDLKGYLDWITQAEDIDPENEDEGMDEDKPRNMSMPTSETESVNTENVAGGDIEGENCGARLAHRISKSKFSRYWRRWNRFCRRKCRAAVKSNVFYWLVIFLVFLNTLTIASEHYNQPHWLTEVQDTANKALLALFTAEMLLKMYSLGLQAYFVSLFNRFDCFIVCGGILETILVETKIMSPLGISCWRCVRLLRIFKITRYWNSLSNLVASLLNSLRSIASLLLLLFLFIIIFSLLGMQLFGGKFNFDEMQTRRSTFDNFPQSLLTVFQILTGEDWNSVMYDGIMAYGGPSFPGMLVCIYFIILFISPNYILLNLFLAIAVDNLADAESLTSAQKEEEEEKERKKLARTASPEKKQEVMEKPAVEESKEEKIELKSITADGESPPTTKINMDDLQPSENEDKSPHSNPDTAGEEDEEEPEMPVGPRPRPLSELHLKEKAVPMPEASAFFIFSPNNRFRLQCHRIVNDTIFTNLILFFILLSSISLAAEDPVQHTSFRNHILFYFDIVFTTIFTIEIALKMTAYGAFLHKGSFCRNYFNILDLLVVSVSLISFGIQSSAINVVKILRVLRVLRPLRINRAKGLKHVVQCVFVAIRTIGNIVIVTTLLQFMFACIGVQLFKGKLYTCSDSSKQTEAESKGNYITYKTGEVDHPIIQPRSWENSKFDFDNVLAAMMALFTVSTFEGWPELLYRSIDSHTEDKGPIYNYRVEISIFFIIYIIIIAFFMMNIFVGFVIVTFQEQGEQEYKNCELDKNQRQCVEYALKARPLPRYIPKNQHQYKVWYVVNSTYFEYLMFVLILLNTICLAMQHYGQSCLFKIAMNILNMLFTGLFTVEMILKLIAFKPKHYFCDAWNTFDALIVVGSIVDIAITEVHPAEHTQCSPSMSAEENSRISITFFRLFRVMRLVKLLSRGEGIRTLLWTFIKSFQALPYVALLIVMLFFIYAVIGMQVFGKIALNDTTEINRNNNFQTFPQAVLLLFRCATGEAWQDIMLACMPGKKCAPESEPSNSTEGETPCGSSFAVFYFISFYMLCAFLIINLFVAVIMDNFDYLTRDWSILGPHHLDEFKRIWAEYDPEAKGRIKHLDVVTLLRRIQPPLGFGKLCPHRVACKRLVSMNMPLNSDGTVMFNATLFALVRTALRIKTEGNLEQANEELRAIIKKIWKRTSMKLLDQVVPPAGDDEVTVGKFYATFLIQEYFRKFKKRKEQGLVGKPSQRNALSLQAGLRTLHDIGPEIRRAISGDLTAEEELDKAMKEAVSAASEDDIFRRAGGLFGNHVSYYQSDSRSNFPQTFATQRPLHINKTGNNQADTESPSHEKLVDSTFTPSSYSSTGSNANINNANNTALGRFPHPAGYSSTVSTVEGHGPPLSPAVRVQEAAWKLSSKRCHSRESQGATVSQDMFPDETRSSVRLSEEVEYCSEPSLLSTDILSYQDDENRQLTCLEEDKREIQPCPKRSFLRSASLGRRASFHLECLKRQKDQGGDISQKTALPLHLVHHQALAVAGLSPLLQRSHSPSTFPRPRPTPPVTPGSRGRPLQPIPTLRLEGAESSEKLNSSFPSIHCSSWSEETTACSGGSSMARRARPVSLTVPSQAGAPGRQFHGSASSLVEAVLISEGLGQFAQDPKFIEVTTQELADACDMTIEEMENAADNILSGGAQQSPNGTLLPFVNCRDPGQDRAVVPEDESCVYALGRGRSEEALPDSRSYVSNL
D1 (h), sequence (P21728 whole entry): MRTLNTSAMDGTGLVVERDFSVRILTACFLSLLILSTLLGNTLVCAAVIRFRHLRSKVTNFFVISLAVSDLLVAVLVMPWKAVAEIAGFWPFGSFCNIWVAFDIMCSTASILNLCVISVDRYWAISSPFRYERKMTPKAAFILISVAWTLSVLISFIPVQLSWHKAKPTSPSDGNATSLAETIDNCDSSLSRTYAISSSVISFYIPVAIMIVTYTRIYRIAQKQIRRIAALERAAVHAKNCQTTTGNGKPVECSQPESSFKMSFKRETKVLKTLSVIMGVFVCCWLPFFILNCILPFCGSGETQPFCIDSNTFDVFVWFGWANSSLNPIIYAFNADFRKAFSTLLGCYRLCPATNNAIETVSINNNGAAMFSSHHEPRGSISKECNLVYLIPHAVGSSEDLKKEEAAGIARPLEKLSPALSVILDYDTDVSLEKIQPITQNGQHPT
Non-Selective Rat Glycine Ion Channel, sequence (P07727 29-457): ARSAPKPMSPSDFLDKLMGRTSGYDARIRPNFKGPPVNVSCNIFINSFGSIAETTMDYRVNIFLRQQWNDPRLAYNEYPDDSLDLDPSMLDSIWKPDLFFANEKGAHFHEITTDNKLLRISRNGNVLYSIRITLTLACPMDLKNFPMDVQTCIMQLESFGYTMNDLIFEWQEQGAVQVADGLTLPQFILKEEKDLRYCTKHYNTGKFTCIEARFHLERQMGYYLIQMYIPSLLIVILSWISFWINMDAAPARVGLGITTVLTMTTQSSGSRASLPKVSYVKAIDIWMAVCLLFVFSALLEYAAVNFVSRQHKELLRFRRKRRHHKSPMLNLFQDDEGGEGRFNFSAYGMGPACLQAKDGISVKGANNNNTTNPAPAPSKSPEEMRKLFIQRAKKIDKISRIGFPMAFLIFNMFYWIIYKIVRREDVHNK
Non-Selective Rat Glycine Ion Channel, sequence (P20781 23-496 partner): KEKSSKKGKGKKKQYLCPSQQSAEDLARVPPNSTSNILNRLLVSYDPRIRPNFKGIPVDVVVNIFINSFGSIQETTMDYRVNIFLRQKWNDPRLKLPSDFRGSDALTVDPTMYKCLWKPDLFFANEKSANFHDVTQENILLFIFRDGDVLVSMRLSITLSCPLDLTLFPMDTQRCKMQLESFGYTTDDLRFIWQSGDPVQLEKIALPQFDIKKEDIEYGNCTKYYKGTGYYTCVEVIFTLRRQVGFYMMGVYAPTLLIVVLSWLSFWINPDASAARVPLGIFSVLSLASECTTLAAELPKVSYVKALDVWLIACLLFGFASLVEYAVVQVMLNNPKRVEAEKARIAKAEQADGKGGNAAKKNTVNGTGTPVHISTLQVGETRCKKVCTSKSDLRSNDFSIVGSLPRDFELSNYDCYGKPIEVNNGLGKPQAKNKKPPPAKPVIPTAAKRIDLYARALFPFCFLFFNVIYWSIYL
CYP1A2, sequence (P05177 whole entry): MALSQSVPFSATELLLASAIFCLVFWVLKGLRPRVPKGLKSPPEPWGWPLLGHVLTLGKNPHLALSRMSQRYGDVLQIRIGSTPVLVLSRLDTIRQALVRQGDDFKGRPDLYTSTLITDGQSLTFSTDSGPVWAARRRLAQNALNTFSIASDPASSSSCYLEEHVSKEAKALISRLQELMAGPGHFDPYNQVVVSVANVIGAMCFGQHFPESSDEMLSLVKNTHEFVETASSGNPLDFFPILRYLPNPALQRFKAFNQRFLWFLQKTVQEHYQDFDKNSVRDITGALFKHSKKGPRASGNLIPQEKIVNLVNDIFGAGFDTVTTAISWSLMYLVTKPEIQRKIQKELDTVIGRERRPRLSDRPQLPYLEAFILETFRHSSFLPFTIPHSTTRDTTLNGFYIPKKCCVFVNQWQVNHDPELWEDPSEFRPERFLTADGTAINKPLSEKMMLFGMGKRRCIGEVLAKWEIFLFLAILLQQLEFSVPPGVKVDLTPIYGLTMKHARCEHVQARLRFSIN
M2 (h), sequence (P08172 whole entry): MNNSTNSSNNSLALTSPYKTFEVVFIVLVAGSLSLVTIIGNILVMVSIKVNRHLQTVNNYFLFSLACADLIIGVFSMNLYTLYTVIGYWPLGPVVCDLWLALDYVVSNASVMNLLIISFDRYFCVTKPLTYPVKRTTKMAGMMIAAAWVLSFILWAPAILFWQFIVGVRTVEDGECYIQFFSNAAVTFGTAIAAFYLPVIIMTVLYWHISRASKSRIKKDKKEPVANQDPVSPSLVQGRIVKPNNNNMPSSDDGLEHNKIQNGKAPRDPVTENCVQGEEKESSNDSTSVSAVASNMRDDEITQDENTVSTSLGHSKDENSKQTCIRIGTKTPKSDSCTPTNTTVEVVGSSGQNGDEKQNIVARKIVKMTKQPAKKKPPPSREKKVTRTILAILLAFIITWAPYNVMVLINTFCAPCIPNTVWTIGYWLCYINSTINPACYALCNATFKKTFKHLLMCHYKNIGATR
MT1 (ML1A) (h), sequence (P48039 whole entry): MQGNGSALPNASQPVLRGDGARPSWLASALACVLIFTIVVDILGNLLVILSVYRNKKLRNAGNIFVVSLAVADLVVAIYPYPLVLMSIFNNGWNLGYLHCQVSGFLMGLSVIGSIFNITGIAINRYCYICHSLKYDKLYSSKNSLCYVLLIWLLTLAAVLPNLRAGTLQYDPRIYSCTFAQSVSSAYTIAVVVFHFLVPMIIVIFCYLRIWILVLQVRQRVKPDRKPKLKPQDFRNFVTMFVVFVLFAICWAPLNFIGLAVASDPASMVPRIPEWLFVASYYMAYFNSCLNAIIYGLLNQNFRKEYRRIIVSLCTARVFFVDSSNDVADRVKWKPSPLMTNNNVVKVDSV

As to `N=C(N)N/N=C/c1c(Cl)cccc1Cl` [guanabenz], in [1], the “nH, Specific binding” value is 1.024.
For `CN1CCc2cc(Cl)c(O)cc2[C@@H](c2ccccc2)C1` [SCH 23390], the nH in data set [2] came to 1.03.
Compound `Cc1nc2c([nH]1)c(=O)n(C)c(=O)n2Cc1ccco1` [Furafylline] had a nH in data set [3] of 0.9709.
Consider `CCN(CC)CC#CCOC(=O)C(O)(c1ccccc1)C1CCCCC1` (centres unmarked) [Oxybutynin], for which the nH in data set [4] stood at 0.7474.
For Ro 41-0960, the IC50 (usually the concentration needed to halve the response being measured) in data set [5] is 23 nM.
For `COc1cc(C(=O)OCCCN2CCCN(CCCOC(=O)c3cc(OC)c(OC)c(OC)c3)CC2)cc(OC)c1OC` [Dilazep], in [6], the “nH, Specific binding” value was found to be 1.337.
`C=C[C@H]1C[N@@]2CC[C@H]1C[C@@H]2[C@@H](O)c1ccnc2ccc(OC)cc12` [Quinidine] yielded a nH in data set [7] of 0.9681.
As to `COc1ccc2[nH]cc(CCNC(C)=O)c2c1` [melatonin], the “nH, Specific binding” value in [8] is listed as 1.177.
For the compound `CCOC(=O)C1=C(C)NC(C)=C(C(=O)OC)C1c1cccc([N+](=O)[O-])c1` (centres unmarked) [nitrendipine], the “nH, Specific binding” value in data set [9] is 1.077.
`COc1ccccc1CNCCCCCCNCCCCCCCCNCCCCCCNCc1ccccc1OC` [methoctramine] showed a nH in data set [10] of 1.382.
The compound `C[C@@H]1C[C@H]2[C@@H]3CCC4=CC(=O)C=C[C@]4(C)[C@@]3(F)[C@@H](O)C[C@]2(C)[C@@]1(O)C(=O)CO` [dexamethasone] gave a nH in [11] of 1.051.
Compound `CC(C)(C)[C@]1(O)CCN2C[C@H]3c4ccccc4CCc4cccc(c43)[C@@H]2C1` [butaclamol] returned a nH in data set [12] of 0.9951.
For `C[N+]1(C)CCC(OC(=O)C(c2ccccc2)c2ccccc2)CC1.[I-]` [Compound 4-DAMP], the nH was 1.577 in [13], 1.959 in data set [14] and 1.178 in data set [15]. Moreover, in data set [15] (read-out: Concurrent IC50), the IC50 came out at 2.35 nM. Moreover, in data set [15] (read-out: Concurrent Ki), the Ki (in general, the equilibrium dissociation constant of an inhibitor or competing ligand from its target) is 1.17 nM.
